The results in this text go back to patent publication US8833306B2, “PACAP for aquatic organism culture” (priority 2005, dated 2014).

No end group written: not given here.

The subject of experiment [1] is juvenile Clarias gariepinus. The experiment is described as follows: Growth stimulation in Clarias gariepinus by recombinant PACAP in the fish diet. It is filed as in vivo. To be noted: in the diet at 5 mg/Kg of feed; 30 days; p<0.01. As for the experimental part:
The Pichia pastoris culture supernatant containing the recombinant PACAP (SEQ ID No. 14) was concentrated and formulated in the nutritional fish diet to a concentration of approximately 5 mg/Kg of feed. Two experimental groups were formed having 100 larvae in each with an average body weight of 0.1 g. One group was treated with recombinant PACAP (SEQ ID No. 14) containing in P. pastoris culture supernatants and the other used as a control group was treated with non-transformed P. pastoris culture supernatant. The experiment was carried out during 30 days.

For experiment [2], the system named is tilapia Oreochromis niloticus. The experiment is described as follows: Effect of recombinant PACAP on juvenile tilapia appetite (ingested food). To be noted: i.p. 0.1 μg/g; 6 hours and 22 hours; p<0.05. It is filed as in vivo. As for the experimental part: To analyze the effect of the PACAP in the fish appetite, we used tilapia of the Oreochromis niloticus species, without sex distinction and approximately the same average body weight. Three experimental groups were formed having 3 individuals in each and 3 replicates per group. The groups were acclimated in separated tanks with stable water recirculation, to a temperature of 28° C. and with the photoperiod of 14 hours light and 10 hours dark. […] The second group was treated with the GHRP-6 (Lipotec, S.A, Spain) by the same administration via at the dose of 0.1 μg of the peptide by gram of the animal corporal weight. The control group was treated with E. coli proteins contained in PBS 1× (E. coli proteins were obtained by the same purification procedure of the interest peptide, with the amount equivalent of the contaminants presents in the purified PACAP sample). After the treatments, the same amount of food was added to the three experimental groups, collecting the non ingested food in 6 hour and adding food again. The appetite was measured again, 22 hours from the beginning of the experiment. The food not ingested in each tank was dried in the stove (100° C., during 24 h) and was weighed in an analytical balance. The ingested food was calculated determining the difference between the food added to the tanks (10 grams, with a 20% of humidity) and the food not ingested by the fish.

For “PACAP (SEQ ID No. 14): Clarias gariepinus recombinant PACAP variant contained in P. pastoris culture supernatants; used in Examples 6-8 (HSDGIFTDSYSRYRKQMAVKKYLAAVLGRRYRQRFRNK; ends and bridges not checked; listed as Clarias gariepinus)”, in experiment [1], the “growth increase compared with control group” value came to 30%. In the case of GHRP-6, the “appetite (ingested food) compared with control group” value in experiment [2] is “significant appetite increase”.
